Data set [1] has as its system single-strand RNA (ssRNA). In words: Selectivity of N3-kethoxal to ssRNA by denaturing gel electrophoresis. It is filed as biochemical. The source says:
The complementary RNA oligoes FS1 (5'-[…] NO:1, Fluorescent RNA oligo) and […]

The subject of another data set is guanine. In words: Reaction of N3-kethoxal with RNA nucleic bases and RNA oligos (HPLC, MALDI-TOF). It is filed as biochemical. On the procedure:
The reaction of N3-kethoxal and RNA was generally performed with the following protocol: 100 pmol RNA oligo and 1 μmol N3-kethoxal was incubated in total 10 μL solution in PBS buffer at 37° C. for 10 mins. […] The purified labelled RNA can be used for further studies such as mass spectrometry, gel electrophoresis and copper-free click reaction with biotin-DBCO.
MALDI-TOF-MS analysis of N3-kethoxal labelled RNA oligo. […] Meanwhile the buffer exchange occurred from PBS buffer to tris buffer that can be directly used in MALDI-TOF-MS experiment without extra desalt step. One microliter of product solution was mixed with one microliter matrix which include 8:1 volume ratio of 2′4′6′-trihydroxyacetophenone (THAP, 10 mg/mL in 50% CH3CN/H2O):ammonium citrate (50 mg/mL in H2O). Then the mixture was spotted on the MALDI sample plate, dried and analyzed by Bruker Ultraflextreme MALDI-TOF-TOF Mass Spectrometers.
The product of N3-kethoxal with for RNA nucleic bases was analyzed using LC-6AD (Shimadzu, Japan) HPLC instrument, which equipped with an Inertsil ODS-SP column ([…], 250×4.6 mm) (GL Science Inc. Japan). The phase A (100 mM TEAA buffer, pH=7.0) and phase B (CH3CN) were used as eluents with a flow rate of 1 mL/min at 35° C. (B conc.: 5-5-30%/0-5-30 min).

For data set [2], the system named is living mouse embryonic stem cells (mESCs). In words: In vivo labeling of living mES cells, dot blot of isolated biotinylated RNA. It is filed as cell-based. As for the experimental part:
In vivo study: 10 μL N3-kethoxal was added into the cell culture medium in 100 mm cell culture dish with nearly 80% confluent mES cells. After incubation at 37° C. in CO2 incubator for a specific time, the medium was aspirated and the cells were washed three times by PBS. The total RNA was isolated by Trizol™ reagent (Invitrogen, 15596026) or Qiagen RNeasy™ plus mini kit (Qiagen, 74134). mRNA was isolated by Dynabeads™ mRNA DIRECT™ Purification Kit (Invitrogen, 61011). The biotinylation step was same as in vitro study. The biotinylated RNA was purified by RNA clean & concentrator.
Dot blot assay: one microliter RNA (100 ng/uL) sample was spotted onto the Amersham Hybond-N+ membrane (RPN119B, GE Healthcare) and UV crosslinked to the membrane by UVP HL-2000 hybriLinker. The membrane was washed using 1×PBST (0.1% tween-20) and blocked with 5% nonfat dry milk in 1×PBST overnight at 4° C. After four times wash using 1×PBST with ten-minute interval, the streptavidin-horseradish peroxidase (1:15000 dilution, streptavidin-HRP, Life Technologies, S-911) in 1×PBST with 3% BSA was added and incubated at room temperature for 40 mins. Then then membrane was washed using 1×PBST with ten-minute interval again and developed by SuperSignal™ West Pico PLUS Chemiluminescent Substrate (Thermo Scientific, 34577). The membrane was washed by 1×PBST again and stained by methylene blue solution (0.02% methylene blue in 0.3 M sodium Acetate pH 5.2).

For data set [3], the system named is N3-kethoxal labelled RNA. In words: Fixation of N3-kethoxal modification in RNA by borate buffer. It counts as physicochemical. The conditions noted are these: final concentration 50 mM. On the procedure: Fixation of N3-kethoxal modification in RNA. The labile N3-kethoxal modification in RNA can be fixed in the presence of borate buffer. The solution of N3-kethoxal labelled RNA was mixed with 1/10 volume of stock borate buffer (final concentration: 50 mM; stock borate buffer: 500 mM potassium borate, pH 7.0, pH was monitored while adding potassium hydroxide pellets to 500 mM boric acid). The borate buffer fixation was used in various steps of keth-seq protocol, see below.

The subject of a further data set is RNA of mouse ES cells. In words: Keth-seq RT stop distribution. It counts as cell-based. On the procedure: A library was prepared following icSHAPE protocol with slight changes (Spitale et al., Nature 519:486-90, 2015). The detailed protocol is described below. For in vitro library preparation, RNA was isolated and refolded in RNA folding mix buffer firstly (100 mM HEPES, pH 8.0, 100 mM NaCl, 10 mM MgCl2). The refolded RNA was treated with N3-kethoxal and then utilized for library construction. For in vivo study, N3-kethoxal was added into the cultural medium of mES cell and the RNA was isolated to be utilized for library construction.
Sequencing data processing. As the library structure is similar to icSHAPE technique, a similar strategy was used to preprocess the sequencing reads. Pipeline from icSHAPE protocol was used to conduct the data analysis, all the scripts can be accessed at URL github.com/qczhang/icSHAPE. Firstly, script readCollapse.pl was used to collapse the reads with default parameter. […] Enriched reactivity for each transcript was calculated by comparing kethoxal sample (foreground) versus control sample (background) using script calcEnrich.pl (-w factor5:scaling1 -x 0.25). […]

Data set [4] concerns N3-kethoxal labelled RNA. In words: Reversibility of N3-kethoxal labelled RNA with excess GTP (MALDI-TOF, dot blot). It counts as physicochemical. Conditions: for time for almost complete removal of N3-kethoxal modification on labeled RNA: excessive GTP (50 mM). As for the experimental part: Removal N3-kethoxal modification from N3-kethoxal labelled RNA. The detailed protocol of N3-kethoxal modification erasing is described below “N3-kethoxal-remove sample preparation” in the keth-seq protocol. Generally, the purified N3-kethoxal modified RNA was incubated with high concentration of GTP (½ volume of the reaction solution, final concentration 50 mM) at 37° C. for 6 hours or at 95° C. for 10 mins. Higher temperature benefits the removal the N3-kethoxal modification.

Data set [5] concerns RNA G-quadruplexes (rG4) in HeLa cell. Nature of the data set: Keth-seq of rG4 regions with or without PDS treatment. It is filed as cell-based, human. Conditions: HeLa cell mRNA, 105 regions. As for the experimental part:
The characterization of RNA G-quadruplexes (rG4) in vivo remains challenging. Because of its high specificity towards guanine, the rG4 structure is a good object of N3-kethoxal to probe. It has been reported that PDS treatment can induce the formation of rG4 inside cells based on immunofluorescence imaging. Keth-seq was tested for the ability to identify rG4 structures induced by PDS inside cells. Keth-seq libraries were prepared using mRNA isolated from HeLa cell with or without PDS treatment. Previously identified rG4 structure regions (n=13,423 from in vitro probing) were analyzed in the Keth-seq data, and detected hundreds of regions with potential secondary structure (FIG. 14d). […] As the regions that form rG4 in vivo are more […], their structures were compared in terms of GINI index. […] Two examples were included where the signal in the defined rG4 regions in the PDS sample is lower than that in the control sample (FIG. 7f).

Setting [6] is: 50 mM GTP, neutral buffer, 37° C., MALDI-TOF.

Entries after “also recorded” stand apart in the source; their conditions may differ.

Consider `CC(OCCN=[N+]=[N-])C(=O)C(O)O` (centres unmarked) [N3-kethoxal, 3-(2-azidoethoxy)-1,1-dihydroxybutan-2-one], for which, in data set [1] (double-stranded RNA), the “gel shift on double-stranded RNA after incubation” value is given as “no such shift was detected”. Moreover, the “gel shift on single-stranded RNA after incubation” value in data set [1] (single-stranded RNA) was “a shift was observed”. In addition, in the data set with guanine (12 mer RNA oligo with 4 guanines), the “labelling of RNA oligo (MALDI-TOF molecular weight of product)” value is given as “all guanines (4 guanines) were modified”. Also, the “reaction with four RNA nucleic bases (HPLC)” value in the data set with guanine (G, A, C, U) was “can only react with guanine (G) and was inert with A, C, and U”. Also, in the data set with guanine (RNA oligo), the “labeling activity compared with SHAPE reagent NAI” value is listed as “higher labeling activity”. Moreover, in data set [2] (added directly to culture medium of living cells), the cell permeability result is given as “highly cell-permeable; also recorded: could permeate the living cell efficiently even during one-minute incubation; also recorded: excellent cell permeability”. Besides, the “time to label DNA and RNA in living cells” value in data set [2] (living cells) is on record as not above 5 min. Also, in data set [2] (mESCs, 1, 5, 10, 15, 20 mins), the “dot blot signal saturation with incubation time” value is “saturated within five minutes”. In the data set with N3-kethoxal labelled RNA [3], the “stability of N3-kethoxal labeled RNA in borate buffer” value is “stabilized in borate buffer”. In addition, the “guanine share of RT-stopped sites among all reads” value in the data set on RNA of mouse ES cells (N3-kethoxal sample) is recorded as more than 80%. Besides, the “G-stop sites with treatment time (keth-seq)” value with RNA of mouse ES cells (mES cell, 1 min vs 5 mins treatment) is “G-stop sites were increased from 1 min to 5 mins”. The “N3-kethoxal modification in mRNA after 10 mins incubation” value with N3-kethoxal labelled RNA [4] (50 mM GTP, 95° C., dot blot) is “removed thoroughly”. The “kethoxal modification after 2 h incubation” value with N3-kethoxal labelled RNA [4] (setting [6]) was “largely removed”. Besides, in the data set with N3-kethoxal labelled RNA [4] (setting [6]), the “kethoxal modification after 6 h incubation” value is reported as “almost removed”. Moreover, the “time for almost complete removal of N3-kethoxal modification on labeled RNA” value was not above 6 h in the data set on N3-kethoxal labelled RNA [4] (37° C.) and not above 0.167 h with N3-kethoxal labelled RNA [4] (95° C.).
`NCCOc1cc(C(=O)Nc2cc(OCCN)c3ccccc3n2)nc(C(=O)Nc2cc(OCCN)c3ccccc3n2)c1` [PDS]: the “GINI index of known rG4 regions vs control sample” value in data set [5] is reported as “higher GINI index than the control sample”.

For the origin of these results see US12428666B2, “Compositions and methods related to kethoxal derivatives” (The University of Chicago, priority 2018, dated 2025).
